From patent EP0000804A1, “Process for the preparation of ethers of clavulanic acid” (BEECHAM GROUP PLC, priority 1977, dated 1979)
In brackets after ≈: the same amount, converted by molar mass.

Columns and labels:
Test in all cases: Minimum inhibitory concentration (MIC) in vitro, β-lactamase inhibitory activity demonstration
Format in all cases: cell-based
[1] = tested on: E. coli JT39; settings: Escherichia coli, compound alone, no ampicillin, read-out: MIC EC, Compound alone
Protocol: (§1) The minimum inhibitory concentrations (MIC) of certain compounds of this invention and of ampicillin, alone or in the presence of compounds of the invention, were determined in vitro for a range of micro-organisms.

[2] = tested on: Staphylococcus aureus Russell; settings: compound alone, no ampicillin, read-out: MIC SAR, Compound alone
Protocol: as §1

[3] = tested on: Proteus mirabilis C889; settings: compound alone, no ampicillin
Protocol: as §1

[4] = tested on: Klebsiella aerogenes E70; settings: compound alone, no ampicillin, read-out: MIC KA, Compound alone
Protocol: as §1

Compound: C=COC/C=C1\O[C@@H]2CC(=O)N2[C@H]1C(=O)OC [Example 8, Methyl 9-0-vinylclavulanate]
- MIC [1]: 500 µg/mL (≈ 2090 µM)
- MIC [2]: 125 µg/mL (≈ 523 µM)
- MIC [3]: 250 µg/mL (≈ 1050 µM)
- MIC [4]: 500 µg/mL (≈ 2090 µM)

Compound: C=COC/C=C1\O[C@@H]2CC(=O)N2[C@H]1C(=O)O [Example 10, Lithium 9-0-vinyl-clavulanate]
- MIC [1]: 31.2 µg/mL (≈ 139 µM)
- MIC [2]: 15.6 µg/mL (≈ 69.3 µM)
- MIC [3]: 62.5 µg/mL (≈ 278 µM)
- MIC [4]: 31.2 µg/mL (≈ 139 µM)
